Measured values: patent publication US20070184082A1, “Biocompatible polymeric delivery systems for sustained release of quinazolinones” (priority 2004, published 2007)

Key:
humans = experiment: Maximum tolerated oral dose of halofuginone in humans; settings: oral administration
clinical = settings: human, in vivo, po, 2 mg
Experimental: The present interim pharmacokinetic analysis was carried out by ASTER. Patients included were treated for solid tumour. On study Day 1 each patient received one oral dose of halofuginone, either 1 mg (one patient) or 2 mg (6 patients), and blood samples for pharmacokinetics were collected up to 72 hours (3 days) after dosing. Immediately after the collection of the 72 hour blood sample, patients started the multiple dose regimen consisting in morning daily dose administration of 1 mg (for subject No.1) or 2 mg (6 remaining patients) until study Day 15. Urine samples were collected over 48 hours after first dosing. Urine concentrations were only available for patients No.1, No.2, No.3 and No.4, and thus only 4 patients were included in the analysis of urine excretion data.

healthy male volunteers = experiment: Phase I clinical study of safety of oral halofuginone, three dosing regimens; assay type: in vivo, human
Experimental: The Phase I clinical study described below was conducted in the PPD Development Clinical Pharmacology Unit, 72 Hospital Close, Evington, Leicester, United Kingdom, between September 2001 and October 2001. The objective of this study was to compare the safety and tolerability of halofuginone when a daily dose of 2 mg is administered using three different dosing regimens.
A single-center, open label, three-period, phase I study was performed. Eight subjects attended the PPD Development Clinic for pre-study screening […]. Visits at the Clinic were as follows:
Subjects were admitted to the Clinic on the evening of Day-1. After an overnight fast, subjects received an oral dose of 0.25 mg halofuginone with a standard snack. Each subject received a total of eight doses at 3-hour intervals starting at approximately 10:00 h on Day 1, and remained resident in the Clinic until the morning of Day 3 [after the 24 hour pharmacokinetic (PK) sample]. They returned to the Clinic for an out-patient visit on the morning of Day 4 to provide a PK blood sample. There was a washout of at least 6 days after the last dose in Period 1 before the start of dosing in Period 2.
Subjects were admitted to the Clinic at approximately 07:00 h on Day 1. Subjects were provided with breakfast and then fasted until the first dose. Subjects received an oral dose of 0.5 mg halofuginone with a standard meal at 6-hour intervals starting at approximately 13:00 h (a total of four doses) and remained resident in the Clinic until the morning of Day 3 (after the 24 hour PK sample). They returned to the Clinic for an out-patient visit on the morning of Day 4 to provide a PK blood sample. There was a washout of at least 6 days after the last dose in Period 2 before the start of dosing in Period 3.
Subjects were admitted to the Clinic on the evening of Day-1. After an overnight fast, subjects received a single oral dose of 2 mg halofuginone with breakfast at approximately 07:00 h on Day 1 and remained resident in the Clinic until the morning of Day 2 (after the 24 hour PK sample). They returned to the clinic for an out-patient visit on the morning of Day 3 to provide a PK blood sample.
Adverse events (AEs) were monitored throughout the study period. Vital signs (including blood pressure, pulse rate and oral body temperature), electrocardiogram (ECG), physical examinations and routine laboratory safety analyses were conducted at the pre-study screening and at the post-study follow-up visits.
Eight healthy male Caucasian subjects were enrolled into the study. The mean age was 31.1 years (range 19-39 years), mean height was 176.6 cm (range 169-184 cm), mean weight was 78.9 kg (range 62.7-91.7 kg) and mean BMI was 25.2 kg/m^2 (range 21.9-27.9 kg/m^2). All subjects completed the study.

Q: Which “maximum tolerated dose with no adverse effects observed” value (humans) does the source give for `O=C(CC1NCCCC1O)Cn1cnc2cc(Br)c(Cl)cc2c1=O` (centres unmarked) [halofuginone, 7-bromo-6-chloro-3-[3-(3-hydroxy-2-piperidinyl)-2-oxopropyl]-4(3H)-quinazolinone] here?
A: 1 mg/day

Q: What about the half-life (clinical) of the same compound?
A: 37.2 h

Q: And the tolerability conclusion (healthy male volunteers; 2 mg given as eight doses of 0.25 mg with a snack or 4 doses of 0.5 mg with a meal)?
A: safe and well tolerated

Q: And the “treatment-emergent AEs considered moderate in severity” value (healthy male volunteers; human, in vivo)?
A: two

Q: What about the “headache AEs” value (healthy male volunteers; male, human, in vivo) of the same compound?
A: 3 AEs

Q: And the “nausea AEs” value (healthy male volunteers; male, human, in vivo)?
A: 13 AEs

Q: What about the “time to resolution of all vomiting AEs and most nausea AEs” value (healthy male volunteers; male, human, in vivo) of the same compound?
A: 1 h and 0.717 h

Q: What about the “total AEs reported” value (healthy male volunteers; male, human, in vivo) of the same compound?
A: 29

Q: What about the “treatment-emergent AEs” value (healthy male volunteers; male, human, in vivo) of the same compound?
A: 28

Q: What about the “treatment-emergent AEs considered mild” value (healthy male volunteers; male, human, in vivo) of the same compound?
A: 26

Q: And the tolerability conclusion (healthy male volunteers; single dose of 2 mg with a meal)?
A: less well tolerated
